Measurements as given in patent publication US10918648B2, “Estrogen receptor modulator combinations” (The Regents of the University of California, priority 2016, dated 2021).
Like-named read-outs stand apart in the source and are kept apart here.

Key:
Assay type in all cases: cell-based, human
A549 NSCLC cells = assay: NSCLC cell proliferation in vitro (MTS assay); details: 72 hours; for IC50: MTS assay
H1975 NSCLC cells = assay: NSCLC cell proliferation in vitro (MTS assay); details: 72 hours
Protocol: (§1) Cell culture: Human breast and non-small cell lung cancer cells (MCF7, ZR75-1, MDAMB231, A549, H23, H1975, […]) were from ATCC. MCF7-HER2 were a kind gift of Dr. Dennis Slamon (23). Cell lines were routinely maintained in RPMI 1640 or DMEM medium with 10% fetal bovine serum (FBS) (Sigma-Aldrich) and 1% Antibiotic-Antimycotic solution 100× (Mediatech, Herndon, Va.). When indicated, for estrogen-free conditions, media was changed 48 h before experiments to phenol-red free RPMI 1640/DMEM with 1% dextran-coated, charcoal-treated (DCC)-FBS (24,25). Otherwise experiments were performed in phenol-red free RPMI 1640/DMEM medium with 5% DCC-FBS.
(§2) Cell proliferation assays: breast and lung tumor cells (between […]) were plated in 96 well plates using their respective medium with 10% FBS. For experiments using estradiol-17β, cells were rinsed with PBS and incubated with phenol redfree medium with 1% DCC-FBS for 48 hours as described before (24,25). Cells were then treated with different concentrations of SERDs ranging between 0.0001-100 μM. […] Cell counts and viability tests (Trypan blue) were done every 24 hr for 3 days. After 72 hr, proliferation was assessed with the MTS Assay CELLTITER 96® Aqueous Cell Proliferation Assay (Promega) or the Cell Proliferation ELISA, BrdU colorimetric assay (Roche). For the MTS, the absorbance of the formazan product was measured at 490 nanometer using the iMARK microplate reader from BIORAD. The BrdU ELISA assay is based on detection of BrdU incorporated into the genomic DNA of proliferating cells and an anti-BrdU antibody, the reaction product was quantified by measuring the absorbance at 370 nanometers using iMARK microplate reader from BIORAD. Cell numbers were also assessed initially by cell counts to confirm MTS/BrdU data. Experiments were done at least three times to confirm data.

H2122 NSCLC cells = assay: NSCLC cell proliferation in vitro (MTS assay); details: 72 hours
Protocol: as §1, §2

[1] = test system: MCF-7 breast cancer cells; assay: MCF-7 breast cancer cell proliferation (BrdU ELISA) in presence of estradiol-17β; details: for IC50: Homo sapiens, MCF7, 72 hrs in the presence of 1 nM estradiol-17β, BrdU ELISA, read-out: IC50 for inhibition of cell proliferation, MCF-7; for inhibition of MCF-7 cell proliferation/survival: 1 μM or 50 μM antiestrogen in the presence of 1 nM estradiol, 1% DCC-FBS, FIG. 2A
Protocol: In experiments to assess potential proliferative effects of novel estrogen receptor ligands, human breast cancer cells were grown in phenol red-free, estrogen-free media with 1% dextran-coated charcoal-treated (DCC)-fetal bovine serum (FBS) for 48 hrs (15,44), then treated with either 1 μM or 50 μM doses of estrogen receptor antagonists in the presence of 1 nM estradiol-17β. Cell counts and viability tests (Trypan blue) were done every 24 hr for 3 days. After 72 hr, proliferation was assessed using the BrdU Cell proliferation ELISA (Roche). Cell numbers were also assessed initially by cell counts to confirm ELISA data. Each antiestrogen was tested at least in three different experiments.
In order to assess the antitumor action of novel estrogen receptor antagonists, we cultured human MCF-7 breast cancer cells with known expression of ERα. Cells were grown in 1% DCC-FBS for 48 hr and then treated with vehicle control or either 1 μM or 50 μM concentrations of antiestrogens JD 101-160 or the pure antiestrogen fulvestrant (FAS), all in the presence of 1 nM estradiol-170. […] Shown in FIG. 2A are results from MCF-7 cells grown in 1% DCC-FBS for 48 hr and then treated with vehicle control, 1 nM estradiol-170 and either 1 μM or 50 μM concentrations of antiestrogens JD 101-160 or the known pure antiestrogen fulvestrant (FAS) in the presence of 1 nM estradiol-170. Cell proliferation is expressed as percentage of that determined in the 1 nM estradiol-170-treated control group.
as §2

[2] = in the presence of 1 μM abemaciclib, 5% DCC-FBS, read-out: IC50 of SERD for inhibition of NSCLC cell proliferation, A549
[3] = in the presence of 1 μM palbociclib, 5% DCC-FBS, read-out: IC50 of SERD for inhibition of NSCLC cell proliferation, A549
[4] = Homo sapiens, NCI-H1975, SERD alone, estrogen-depleted phenol red-free medium with 5% DCC-FBS, read-out: IC50 for inhibition of NSCLC cell proliferation, H1975
[5] = in the presence of 1 μM palbociclib, 5% DCC-FBS, read-out: IC50 of SERD for inhibition of NSCLC cell proliferation, H1975
[6] = Homo sapiens, NCI-H2122, SERD alone, estrogen-depleted phenol red-free medium with 5% DCC-FBS, read-out: IC50 for inhibition of NSCLC cell proliferation, H2122
[7] = in the presence of 1 μM abemaciclib, 5% DCC-FBS, read-out: IC50 of SERD for inhibition of NSCLC cell proliferation, H2122
[8] = in the presence of 1 μM palbociclib, 5% DCC-FBS, read-out: IC50 of SERD for inhibition of NSCLC cell proliferation, H2122
[9] = Homo sapiens, A549, SERD alone, estrogen-depleted phenol red-free medium with 5% DCC-FBS, read-out: IC50 for inhibition of NSCLC cell proliferation, A549

Compound	IC50 (A549 NSCLC cells; [2]) [nM]	IC50 (A549 NSCLC cells; [3]) [nM]	IC50 (H1975 NSCLC cells; [4]) [nM]	IC50 (H1975 NSCLC cells; in the presence of 1 μM abemaciclib, 5% DCC-FBS, read-out: IC50 of SERD for inhibition of NSCLC cell proliferation, H1975) [nM]	IC50 (H1975 NSCLC cells; [5]) [nM]	IC50 (H2122 NSCLC cells; [6]) [nM]	IC50 (H2122 NSCLC cells; [7]) [nM]	IC50 (H2122 NSCLC cells; [8]) [nM]	IC50 [1] [nM]	IC50 (A549 NSCLC cells; [9]) [nM]	inhibition of MCF-7 cell proliferation/survival [1]	antiproliferative effects compared with fulvestrant (A549 NSCLC cells; A549, RPMI 1640 with 10% FBS, 1 μM or 10 μM, FIG. 8A)
C[C@]12C[C@H](Oc3ccc(N)cc3)[C@@H]3c4ccc(O)cc4CC[C@H]3[C@@H]1CC[C@@H]2O [JD105, (8S,9S,11S,13S,14S,17S)-11-(4-aminophenoxy)-13-methyl-7,8,9,11,12,13,14,15,16,17-decahydro-6H-cyclopenta[a]phenanthrene-3,17-diol]	410	2570	4500	1060	4780	3830	1480	4200	2140			
C[C@]12C[C@H](Oc3ccc(N)c(C(F)(F)F)c3)[C@@H]3c4ccc(O)cc4CC[C@H]3[C@@H]1CC[C@@H]2O [JD128, (8S,9S,11S,13S,14S,17S)-11-(4-Amino-3-(trifluoromethyl)phenoxy)-13-methyl-7,8,9,11,12,13,14,15,16,17-decahydro-6H-cyclopenta[a]phenanthrene-3,17-diol]	660	1340			12400	1310	230	960	110	1090	significant inhibition	
C[C@]12C[C@H](Oc3ccc(NC(=O)CCCCN4CCCCC4)c(F)c3)[C@@H]3c4ccc(O)cc4CC[C@H]3[C@@H]1CC[C@@H]2O [JD140, N-(4-(((8S,9S,11S,13S,14S,17S)-3,17-Dihydroxy-13-methyl-7,8,9,11,12,13,14,15,16,17-deca-hydro-6H-cyclopenta[a]phenanthren-11-yl)oxy)-2-fluorophenyl)-5-(piperidin-1-yl)pentan-amide]	640	1220	1860		17100	1140	30	1110	320	500	significant inhibition	significant antiproliferative effects
